# Measured values taken from patent US12472175B2, “Methods of treating venetoclax-resistant acute myeloid leukemia” (OREGON HEALTH & SCIENCE UNIVERSITY, priority 2019, dated 2025).
# Columns and labels:
# [1] = system: MOLM-13 and MV4;11 cells with TP53 and BAX KOs; assay: Small molecule inhibitor panel screen, changes common to modified MOLM-13 and MV4;11 cells; type: cell-based, Human; conditions: for change in drug sensitivity common to modified MOLM-13 and MV4;11 cells: TP53 and BAX KOs relative to non-targeting control; for sensitivity to NTRK/ALK/ROS1 inhibitors: cells with TP53 KO; for sensitivity to FLT3 inhibitors: TP53 inactivated MV4;11 and MOLM-13 cells
# Protocol: Small-molecule inhibitors, purchased from LC Laboratories (Woburn, Mass., USA) and Selleck Chemicals (Houston, Tex., USA), were reconstituted in DMSO and stored at −80° C. Inc. Inhibitors were distributed into 384-well plates prepared with a single agent/well in a 7-point concentration series ranging from 10 μM to 0.04 μM for each drug. […] After three days of culture at 37° C. in 5% CO2, MTS reagent (CellTiter96 AQueous One; Promega Madison, Wis., USA) was added, optical density was measured at 490 nm, raw absorbance values were adjusted to a reference blank value, and then used to determine cell viability (normalized to untreated control wells). Prizm software(GraphPad) was used to perform non-linear regression analyses on normalized values for the determination of IC50.
# FIG. 7A. MOLM-13 and MV4;11 cells, transduced with indicated sgRNAs/Cas9 viruses, were screened with a panel of inhibitors targeting various molecular pathways and assessed using the cell survival method described in FIG. 2A.
# FIG. 7B. Analyses of FLT3 inhibitor sensitivities, in MOLM-13 and MV4;11 parental and Crispr-modified cells, as indicated. Drug sensitivity was measured as described in FIG. 2A, with IC50 measured in triplicate.
# MOLM-13 cells [2] = assay: Cell viability (MTS) drug sensitivity assay in MOLM-13 cells transduced with sgRNA/Cas9 viruses; type: cell-based, Human
# Protocol: (§1) Small-molecule inhibitors, purchased from LC Laboratories (Woburn, Mass., USA) and Selleck Chemicals (Houston, Tex., USA), were reconstituted in DMSO and stored at −80° C. Inc. Inhibitors were distributed into 384-well plates prepared with a single agent/well in a 7-point concentration series ranging from 10 μM to 0.04 μM for each drug. The final concentration of DMSO was ≤1.1% in all wells. Cells were seeded into 384-well assay plates at 1,000 cells/well in RPMI-1640 media supplemented with fetal bovine serum (15%), L-glutamine, penicillin-streptomycin and antimycotic. After three days of culture at 37° C. in 5% CO2, MTS reagent (CellTiter96 AQueous One; Promega Madison, Wis., USA) was added, optical density was measured at 490 nm, raw absorbance values were adjusted to a reference blank value, and then used to determine cell viability (normalized to untreated control wells). Prizm software(GraphPad) was used to perform non-linear regression analyses on normalized values for the determination of IC50.
# FIG. 2. A. Confirmation of genes conferring venetoclax resistance in MOLM-13 and MV4;11 cells and correlations with changes in apoptotic gene transcription in AML patients. MOLM-13 (FIG. 2A) or MV4;11 (FIG. 2B) cells were transduced with lentiviruses carrying single sgRNA/Cas9 constructs targeting TP53, BAX, PMAIP1, FAU or control (non-targeting; NT_g). 10 days post transduction, venetoclax sensitivity was measured in triplicate by colorimetric MTS assay using a 7-point concentration range (4 nM to 10 μM). Percentages of viable cells, after normalization to untreated controls, were fit using non-linear regression analyses; mean and standard errors are shown. MOLM-13P, parental MOLM-13 cells. MV4;11P, parental MV4;11 cells. FIG. 2C. Histogram (log 2 scale) summarizing changes in venetoclax sensitivity in parental MOLM-13 (black shaded), parental MV4;11 cells (grey shaded) or cells transduced with indicated sgRNA/Cas9 viruses., IC50 values were calculated by non-linear regression analyses in the cell viability assay described in panel A. FIG. 2D. […]
# [3] = system: primary AML patient cells; assay: Ex vivo viability (MTS) drug sensitivity in primary AML patient samples (Beat AML); type: cell-based
# Protocol: as §1
# FIG. 3. Venetoclax sensitivity in AML patients inversely correlates with TP53 mutations and low expression of TP53 and BAX. 3A. Venetoclax (VEN) sensitivity in primary AML patient samples was measured in a viability assay across a concentration series ranging from 10 nM to 10 μM. AUC was determined for each sample and plotted relative to TP53 mutant status or TP53 expression levels. LE and HE denote lowest and highest quartile expression values, respectively. […] Within TP53 mutant groups, circles, triangles and square symbols denote loss of function (LOF), gain of function (GOF), and splice variants correspondingly. 3B. Correlation between gene expression levels from AML patient samples for TP53, BAX, PMAIP1 and TMEM14A to the respective venetoclax sensitivities represented by AUC (n=442; [36]). k, slope values generated by linear regression; r, Spearman coefficient; ****, p<0.0001; ns, not significant.
# FIG. 12. Selected ex vivo drug sensitivity in AML patients' cells with mutant TP53 mutations. Histogram representing drug sensitivity, measured in primary AML patient cells ex vivo, in a viability MTS assay across a concentration series ranging from 10 nM to 10 μM, using 10,000 cells per well, in triplicates. […] Red bars denote median IC50 value.
# (§2) FIG. 13. Analyses of Venetoclax sensitivities in CLL and AML patient cohorts ex vivo. Scatter plot of IC50 values are indicated. Mann-Whitney test was performed on IC50 values to ascertain statistical differences of mean. ***, p<0.001.
# CLL patient specimens = assay: Ex vivo venetoclax sensitivity in CLL patient cohort; type: cell-based
# Protocol: as §1, §2
# MOLM-13 cells [4] = assay: Cell cycle profile by flow cytometry; type: cell-based, Human; conditions: TP53 KO cells, 100 nM entrectinib o/n
# Protocol: FIG. 11. Entrectinib arrests cells with loss-of-function alleles for TP53 in G1. (FIG. 11A). Flow cytometry analyses of cells treated with 100 nM entrectinib o/n or vehicle alone. (FIG. 11B). Histogram representing cell cycle profiles of MOLM-13 cells transduced with sgRNAs/Cas9 viruses for non-targeting sgRNA (NT_g, n=3), TP53 sgRNA (TP53_g, n=3) or BAX (n=1); mean and standard deviation are shown where appropriate. (FIG. 11C). Cell viability assay assessing the sensitivity of the combination of entrectinib and venetoclax relative to sensitivities for each single agent on MOLM-13 cells transduced with sgRNAs/Cas9 viruses for TP53 sgRNA. Data were fit to a non-linear regression analysis with means and standard errors.
# NTRK = assay: Western blot of NTRK and downstream MAPK phosphorylation; type: cell-based, Human; conditions: TP53 KO MOLM-13, entrectinib 100 nM overnight; not in control or parental cells
# Protocol: Whole cells extracts from MOLM-13 or MV4;11 cells were prepared using 20 mM Tris-HCl (pH 7.5), 150 mM NaCl, 1 mM Na EDTA, 1 mM EGTA, 1% Triton, 2.5 mM sodium pyrophosphate, 1 mM beta-glycerophosphate, 1 mM Na3VO4, 1 μg/ml leupeptin (Cell Signalling), 1 mM PMSF, […] (Roche) and phosphatase inhibitor cocktail (Sigma-Aldrich). Proteins were resolved on 5-15% gradient gels (Biorad), transferred to PVDF membrane (Amersham) and subjected to immunoblotting using primary, followed by corresponding HRP-conjugated secondary antibodies (Promega), or biotinylated secondary antibody followed by streptavidin conjugated to HRP(TRK antibodies).
# FIG. 7E. Western blot analyses of proteins extracted from MOLM-13 parental and MOLM-13 transduced with TP53 sgRNA/Cas9 viruses and treated overnight with venetoclax (100 nM), entrectinib (100 nM) or DMSO (vehicle), and identified with antisera to pan NTRK, phosphorylated NTRK, phosphorylated ERK1/2, ERK1/2, phosphorylated AKT, AKT and GAPDH.
# MOLM-13 cells [5] = conditions: cells with inactivation of TP53 and BAX, regardless of venetoclax treatment
# Protocol: Cells were loaded in complete medium with 100 nM mitophagy Dye (Mitophagy Detection Kit, Dojindo Molecular Technologies) and 25 nM MitoTracker Deep Red, incubated for 30 min at 37° C. with serum free RPMI, washed and treated with DMSO or 100 nM venetoclax in DMSO for 2 hrs. […] Cells were washed, loaded with lyso dye for 30 min and observed for fluorescence. Mitophagy was detected as intense fluorescence of mitodye upon fusion with lysosomes, detected with lyso dye (488 nm(Ex), 550 nm(Em). 10,000 cells were collected for analysis using a BD FACS Arian™III on 10,000 acquired events. The data were analyzed post acquisition using FlowJo software (Tree Star, Ashland, Oreg., USA). 10,000 cells were acquired using channels 405-2-A(lyso dye), 561-3-A(Mitophagy dye) and 640-1-A(MitoTracker Dye).
# Histogram of a representative mitophagy experiment (n=2). […] Histogram of a representative experiment from C (n=2) with 10,000 cells analyzed per sample.
# MOLM-13 cells [6] = assay: Mitochondrial membrane potential (JC-1); type: cell-based, Human; conditions: TP53 and BAX mutant cells, CCCP alone
# Protocol: Membrane depolarization was induced with CCCP. Cells were treated with 100 nM venetoclax or DMSO and with or without CCCP for 2 hrs prior to addition of the dye and flow cytometry.
# FIG. 5. […] Histogram of a representative mitophagy experiment (n=2). […] FIG. 5B. […] FIGS. 5C, 5D. […] FIG. 5E. […] FIG. 5F. Cell viability assay in response to elesclomol.
# [7] = sensitivity printed as IC50≥0.5 μM
compound,measurement,setting,value
Oc1cccc(-c2nc(N3CCOCC3)c3oc4ncccc4c3n2)c1 [PI-103],change in drug sensitivity common to modified MOLM-13 and MV4;11 cells,[1],increased
CN(NC(=O)CC(=O)NN(C)C(=S)c1ccccc1)C(=S)c1ccccc1 [elesclomol],cell viability in response to elesclomol,MOLM-13 cells [2]; TP53 and BAX KO cells,still susceptible to cell death
Cc1cc(Nc2nc(N[C@@H](C)c3ncc(F)cn3)ncc2Cl)n[nH]1 [AZD1480],sensitivity to NTRK/ALK/ROS1 inhibitors,[1],sustained gain of sensitivity
O=C(Nc1cnn2ccc(N3CCC[C@@H]3c3cc(F)ccc3F)nc12)N1CC[C@H](O)C1 [larotrectinib],sensitivity to selective NTRK inhibitor,MOLM-13 cells [2]; TP53 KO,profound gain of sensitivity
COCCn1c2c([n+](Cc3cnccn3)c1C)C(=O)c1ccccc1C2=O [YM-155],change in drug sensitivity common to modified MOLM-13 and MV4;11 cells,[1],increased
CC1(C)CCC(CN2CCN(c3ccc(C(=O)NS(=O)(=O)c4ccc(NCC5CCOCC5)c([N+](=O)[O-])c4)c(Oc4cnc5[nH]ccc5c4)c3)CC2)=C(c2ccc(Cl)cc2)C1 [venetoclax],IC50,"[3]; Homo sapiens, AML, 289 patients, read-out: Median IC50, venetoclax sensitivity ex vivo, AML cohort",100 nM
same,median IC50 for AML relative to that for CLL,"[3]; ex vivo patient samples, Beat AML cohort",14 times
same,share of AML specimens exhibiting sensitivity to venetoclax,[3]; [7],about 40%
same,IC50,"CLL patient specimens; Homo sapiens, CLL, 141 patients, read-out: Median IC50, venetoclax sensitivity ex vivo, CLL cohort",1400 nM
same,share of CLL specimens exhibiting sensitivity to venetoclax,CLL patient specimens; [7],~55%
CS(=O)(=O)N1CCN(Cc2cc3nc(-c4cccc5[nH]ncc45)nc(N4CCOCC4)c3s2)CC1 [GDC-0941],change in drug sensitivity common to modified MOLM-13 and MV4;11 cells,[1],increased
Cc1c2c(nn1C)CSCc1cc(n(C)n1)CSc1cc(c3ccccc3c1)OCCCc1c(C(=O)O)n(C)c3c-2c(Cl)ccc13 [AZD5991],"sensitivity to MCL1 inhibitor, TP53 KO",MOLM-13 cells [2]; TP53 KO MOLM13 cells,significantly diminished
CN1CCN(c2ccc(C(=O)Nc3n[nH]c4ccc(Cc5cc(F)cc(F)c5)cc34)c(NC3CCOCC3)c2)CC1 [entrectinib],cell cycle effect,MOLM-13 cells [4],G1 cell cycle blockade
same,ex vivo drug sensitivity in AML patient cells with TP53 mutations,"[3]; several patient specimens, 10 nM to 10 μM",relatively high sensitivity
same,sensitivity to NTRK/ALK/ROS1 inhibitors,[1],sustained gain of sensitivity
same,phosphorylation of NTRK and downstream MAPK signaling,NTRK,significant decreases in phosphorylation
CNC(=O)c1cc(Oc2ccc(NC(=O)Nc3ccc(Cl)c(C(F)(F)F)c3)cc2)ccn1 [sorafenib],sensitivity to FLT3 inhibitors,[1],loss of sensitivity
COc1ccc(COc2ccc(Cc3cnc(N)nc3N)cc2OC)cc1 [GW-2580],sensitivity to NTRK/ALK/ROS1 inhibitors,[1],sustained gain of sensitivity
CC1(COc2ccc3c(c2)ncn3-c2ccc3cccc(N4CCC(N)CC4)c3n2)COC1 [crenolanib],sensitivity to FLT3 inhibitors,[1],loss of sensitivity
carboyl cyanide m-chlorophenyl hydrazine [CCCP],mitophagy in response to mitochondrial uncoupler,MOLM-13 cells [5],less likely to undergo mitophagy or mitochondrial death
same,loss of mitochondrial membrane potential in response to uncoupler,MOLM-13 cells [6],less likely to lose mitochondrial membrane potential
C[C@@H](Oc1cc(-c2cnn(C3CCNCC3)c2)cnc1N)c1c(Cl)ccc(F)c1Cl [crizotinib],sensitivity to NTRK/ALK/ROS1 inhibitors,[1],sustained gain of sensitivity
O=S(=O)(NCCNC/C=C/c1ccc(Br)cc1)c1cccc2cnccc12 [H-89],change in sensitivity between BAX-inactivated MV4;11 and MOLM-13 cells,"[1]; BAX-inactivated, also overlapped in TP53 inactivated cells",concordant changes
